Reference: article PMC7471840, “Autoantigens PLA2R and THSD7A in membranous nephropathy share a common epitope motif in the N-terminal domain” (Journal of Autoimmunity, 2020)

Assays:
[1] = system: unrelated mouse monoclonal raised against transferrin receptor; test: Slot blotting of peptides with unrelated mouse monoclonal; format: binding; conditions: slot blot, non-reducing; 1 μg peptide; antibody 1:5000
Procedure: (§1) PLA2R, CysR domain, THSD7A (R&D Systems) and TSR1 protein samples (1 μg per lane) were resolved using 4–12% BisTris gradient gels with the MES buffer system, transferred to nitrocellulose membranes and blotted using patient sera (1:100 dilution) followed by incubation with Alexa Fluor® 680-AffiniPure Goat Anti-Human IgG, Fcγ Fragment Specific (min X Bov,Hrs,Ms Sr Prot) (1:10,000 dilution; Jackson Labs). Proteins were also analyzed using Moab 20-2-6, a monoclonal anti-PLA2R mouse antibody raised against a PLA2R fragment (see 2.4.1 for further details) at dilution 1:5000. Protein bands were visualized using an Odyssey Imaging System (LI-COR) at 700 nm and the intensity settings were kept constant for all blots allowing comparison. For slot blotting, 1 μg of proteins or peptides (P28mer aa38–65 and T28mer aa75-102 synthesized by ProImmune Ltd, Oxford, UK) were blotted directly onto nitrocellulose membrane and vacuum applied. For the reducing condition, samples were diluted in 10 mM Tris pH 8 then reduced and alkylated by sequential incubation with 50 mM DTT for 1 h at 37 °C and then with 125 mM iodoacetamide for 20 min in the dark. The reduced samples along with unreduced were blotted as described above.
(§2) Fig.10 – Specificity of Moab 20-2-6 to P28mer and T28mer.
(§3) Slot blot analysis of unrelated mouse monoclonal
(§4) Moab anti-Transferrin secondary only control […]

[2] = system: Moab 20-2-6; test: Slot blotting of peptides with Moab 20-2-6; format: binding, mouse; conditions: non-reducing, 1 μg peptide, antibody 1:5000
Procedure: as §1, §2, §3, §4

[3] = system: anti-PLA2R positive sera; test: Slot blotting with anti-PLA2R positive sera; format: binding, human; conditions: non-denaturing; 1 μg protein/peptide; sera 1:100; Fig. 2D
Procedure: as §1

[4] = system: PLA2R autoantibodies in anti-PLA2R positive MN patient sera; test: BLI off-rate of MN patient sera, anti-PLA2R positive sera on immobilized peptides; format: binding, human; conditions: Octet Red, peptide immobilized on AR2G sensor, sera 1:100 in HEPES-T sera (10 mM HEPES, 150 mM NaCl, 0.05% Tween-20, 0.5% control sera), association 450s, dissociation 1200s, Hill fit, ten anti-PLA2R positive sera
Procedure: (§5) BLI experiments were conducted using an Octet Red (ForteBio, Nottingham, UK). P28mer and T28mer were diluted to 200 μg/ml in 10 mM sodium acetate, pH 4.5, and immobilized on an Octet AR2G sensor (ligand densities of 1.2 nm and 1.4 nm respectively). Patient sera were diluted 1:100 in HEPES-T sera (10 mM HEPES, 150 mM NaCl, 0.05% Tween-20 and 0.5% of a pool of human control sera). Three control normal sera were incorporated in the running buffer in order to provide the baseline binding (i.e. normalize the binding due to any spurious interaction) and allowing quantification of binding above this background. […] Sensors were incubated in MN sera for 450s (association phase) followed by HEPES-T sera for 1200s (dissociation phase). Regeneration was performed in 10 mM NaOH with three successive incubations. The peptide immobilized sensors responses to MN patient sera were calibrated against non-specific binding of each sensor to the HEPES-T sera buffer. The data were fitted to a Hill-1 plot with the inverse k value equivalent to the off rates (koff). Statistical analysis was performed using two way ANOVA multiple comparison or paired t-test as stated in the figure legends. p values of <0.05 were considered significant.

[5] = system: affinity purified anti-P28mer (PLA2R autoantibodies); test: BLI of affinity purified anti-P28mer; format: binding, human; conditions: immobilized peptide, antibodies eluted from P28mer beads, normalized to blank beads
Procedure: (§6) 2 mg of MyOne™ carboxylic acid dynabeads per condition (Invitrogen, UK) were activated using 18.75 mg/ml EDC (N-3-dimethylaminopropyl- N′-ethylcarbodiimide hydrochloride, Sigma-Aldrich). 800 μg/ml of recombinant PLA2R fragment (NC3) and peptides (P28mer, T28mer or T28mer scrambled peptide) diluted in 15 mM MES buffer pH 6 were covalently immobilized overnight at 4 °C. The conditioned beads were then deactivated using 1 M ethanolamine (Bio-Rad) for 1 h. Pooled anti-THSD7A positive MN patient sera were diluted 1:50 in PBS-T and incubated (overnight at 4 °C with agitation) with 1 mg of either blank immobilized, T28mer immobilized or T28mer scrambled peptide immobilized magnetic beads. Pooled anti-PLA2R positive MN patient sera were similarly diluted and incubated with blank immobilized, PLA2R antigen immobilized or P28mer immobilized magnetic beads. Magnetic beads from all conditions were then precipitated, the supernatants removed, and washed three times in PBS-T. Bound antibodies were eluted with 0.1 M glycine pH 2.2 and the eluates from each condition were neutralized using 1 M TrisHCl pH 8. The affinity-purified eluate from each condition was then evaluated for binding to the P28mer and T28mer by BLI. The BLI analysis was executed as stated in section 2.9.1.1. with modification of the running buffer. […]

[6] = system: affinity purified antibodies from PLA2R positive sera against PLA2R antigen; test: BLI of affinity purified anti-PLA2R (against PLA2R antigen); format: binding, human; conditions: immobilized peptide, antibodies eluted from PLA2R antigen beads (positive control)
Procedure: as §6

[7] = system: sera from ANCA vasculitis patients; test: Slot blotting with ANCA vasculitis sera; format: binding, human; conditions: slot blot, non-reducing; 1 μg peptide; pool of 5 sera, 1:100
Procedure: as §1
(§7) Fig.6 - Slot blot analysis of sera from IgAN and
(§8) Hu anti-IgAN Hu anti-ANCA Ponceau
(§9) CysR P28sc CysR P28sc CysR P28sc […]

[8] = system: sera from IgA Nephropathy (IgAN) patients; test: Slot blotting with IgA Nephropathy sera; format: binding, human; conditions: slot blot, non-reducing; 1 μg peptide; pool of 5 sera, 1:100
Procedure: as §1, §7, §8, §9

[9] = system: affinity purified anti-T28mer (THSD7A autoantibodies); test: BLI of affinity purified anti-T28mer; format: binding, human; conditions: immobilized peptide, antibodies from anti-THSD7A sera eluted from T28mer beads, normalized to blank beads
Procedure: as §6

[10] = system: anti-THSD7A positive sera; test: Slot blotting with anti-THSD7A positive sera; format: binding, human; conditions: for binding of anti-THSD7A positive sera (slot blot): non-denaturing, 1 μg protein/peptide, sera 1:100, Fig. 2D
Procedure: as §1

[11] = Circular dichroism of the epitope peptides; format: physicochemical; conditions: 0.5 mg/ml; for turn content / unordered content / α-helix content / β-sheet content: CD far-UV 190–260 nm, milliQ water, 0.05-cm path, average of 10 accumulations, BeStSel
Procedure: Lyophilized peptides were reconstituted in milliQ water to a concentration of 2.5 mg/ml and diluted to 0.5 mg/ml. CD Far-UV (190–260 nm) spectra were recorded using a Jasco-810 spectropolarimeter. Measurements were taken every 0.2 nm in a 0.05-cm path length cell. Spectra were corrected for buffer absorbance and represent an average of 10 accumulations. Spectra were recorded in millidegrees and converted to mean residue ellipticities using the following equation deltaE = mdeg x (0.1 x mrw)/path x conc_mg/ml x 3298 (where P28mer mrw = 109.5, T28mer mrw = 107.9). Estimation of secondary structure content was then performed using BeStSel software program.

[12] = target: Moab 20-2-6; test: SPR kinetics of Moab 20-2-6 on immobilized peptides; format: binding, mouse; conditions: ProteOn XPR36, peptide immobilized on GLC chip, Moab 20-2-6 at 25-5 nM, Langmuir 1:1 with mass transfer, printed in Fig. 4B
Description: Hybridoma production was undertaken by Proteogenix SAS (Schiltigheim, France). Mice were immunized with a fragment of human PLA2R protein (namely NC3, comprising the first five extracellular domains, CysR-FnII-CTLD1-CTLD2-CTLD3). Following fusion of spleen cells, 34 positive supernatants were found when screened by ELISA on the NC3 protein. Ten of the original 34 positive supernatants were taken forward for cloning. Following subcloning, 5 of 10 clones were selected for purification of monoclonal antibody which included antibody 20-2-6.
Kinetics were determined using a ProteOn XPR36 (Bio-Rad, Watford, UK). The P28mer and T28mer peptides were diluted to 200 μg/ml in 10 mM sodium acetate, pH 4.5, and immobilized on a ProteOn GLC sensor chip using standard amine coupling chemistry. […] Moab 20-2-6 was diluted to 25, 20, 15, 10, 5 nM in HEPES-T and injected for 120 s at 70 μl/min. The injection was stopped and dissociation phase measured for 800s. Buffer only and a blank immobilized lanes were used as controls and subtracted. The GLC sensor was regenerated in 10 mM NaOH with two successive injections. Kinetics were determined by fitting to a Langmuir 1:1 interaction model.

[13] = system: THSD7A autoantibodies in anti-THSD7A positive MN patient sera; test: BLI off-rate of MN patient sera, anti-THSD7A positive sera on immobilized peptides; format: binding, human; conditions: for Koff (dissociation rate): BLI, Octet Red, peptide immobilized on AR2G sensor, sera 1:100 in HEPES-T sera (10 mM HEPES, 150 mM NaCl, 0.05% Tween-20, 0.5% control sera), association 450s, dissociation 1200s, Hill fit, ten anti-THSD7A positive sera
Procedure: as §5

Substance	reactivity of unrelated mouse monoclonal to peptide [1]	reactivity of Moab 20-2-6 to peptide (slot blot) [2]	binding of anti-PLA2R positive sera (slot blot) [3]	Koff (dissociation rate) [4] [s⁻¹]	binding of affinity purified anti-P28mer [5]	binding of affinity purified PLA2R autoantibodies [6]	binding of ANCA vasculitis sera [7]	binding of IgA Nephropathy sera [8]	binding of affinity purified anti-T28mer [9]	binding of anti-THSD7A positive sera (slot blot) [10]	turn content [11] [%]	unordered content [11] [%]	α-helix content [11] [%]	β-sheet content [11] [%]	Kd [12] [nM]	Koff (dissociation rate) [13] [s⁻¹]	number of anti-THSD7A sera recognizing the peptide ([10]; native blotting, ten anti-THSD7A sera tested)	negative peak in CD spectrum ([11]; CD far-UV)	preference of sera THSD7A autoantibodies between peptides (by dissociation rates) ([13]; T28mer vs P28mer, Fig. 3B **** p value < 0.001 (two-way ANOVA))
P28mer: known major PLA2R CysR epitope peptide, aa38-65, synthesized by ProImmune	no reactivity	reactivity	reacted with both P28mer and T28mer	0.0028	bind to both epitope peptides	bind to both epitope peptides	no binding	no binding	bind to both epitope peptides	reacted with both P28mer and T28mer	21.3	45.2	12.1	21.3	0.0887	0.0068			
T28mer: THSD7A epitope peptide, aa75-102, located in the TSR1 domain, synthesized by ProImmune (GPGGIQTRAVWCAHVEGWTTLHTNCKQA; UniProt Q9UPZ6 75-102, looked up, fragment)	no reactivity	reactivity	reacted with both P28mer and T28mer	0.0009	bind to both epitope peptides	bind to both epitope peptides	no binding	no binding	bind to both epitope peptides	reacted with both P28mer and T28mer	15	46.7	6.5	31.8	0.101	0.0013	All ten anti-THSD7A sera tested recognized the T28mer peptide	around 205 nm	preferentially bind to the T28mer over P28mer
